{
  "source": "patent US6495572B1",
  "about": "“Synergistic mixtures of an amino acid” (Agrogene Ltd., priority 1997, dated 2002)",
  "type_in_all_cases": "in vivo, Erysiphe graminis",
  "key": {"powdery mildew in wheat": {"tested_on": "powdery mildew in wheat", "test": "Control of powdery mildew on potted wheat plants in growth chamber", "parameters": "ED90: unit not given beside the values", "settings": "for Observed Control (%): wheat", "description": "(§1) β Amionbutyric acid and component (b) fungicides were tested against fungi on potted plants, as follows:\n(§2) 12-15 seeds were sown in a pot of 0.5 liter in a mixture of ground, sand, and Perlite in a ratio of 1;1;1. After two weeks in a growth chamber the plants were used for experimentation only when the first true leave appeared. Spraying was done until runoff; waiting in the growth chamber for 24 hours. Inoculations of the fungus was done via dusting the plants with plants already infected. The then dusted plants were incubated 7 to 10 days at 20° in a growth chamber with an exposure of 12 hours to light at an intensity of 7000-800 lucs. The results of the fungul growth was done via visual estimation (0 to 4) of the infected leaves. The existence of synergism between the active components was calculated according to the Abbott Equation. [formula]\n(§3) a=% control b the β-arninobutyric acid.\n(§4) b=% control by the second component.\n(§5) and where the synergism factor. SF is calculated thusly [formula]"}, "[1]": {"tested_on": "powdery mildew in cucumber", "test": "Control of powdery mildew on potted cucumber plants in growth chamber", "settings": "for Observed Control (%): cucumber", "description": "as §1, §2, §3, §4, §5"}, "powdery mildew in barley": {"tested_on": "powdery mildew in barley", "test": "Control of powdery mildew on potted barley plants in growth chamber", "description": "as §1, §2, §3, §4, §5"}},
  "data": [
    {"smiles": "Fc1ccc([C@]2(Cn3cncn3)O[C@H]2c2ccccc2Cl)cc1", "note": "(racemic) [Epoxiconazole, epoxiconazole]", "values": [
      {"measurement": "ED90", "setting": "powdery mildew in wheat; wheat (Table 6)", "value": 0.5},
      {"measurement": "Observed Control (%)", "setting": "powdery mildew in wheat; Epoxiconazole 0.15 ppm alone", "value": 25, "unit": "%"},
      {"measurement": "Observed Control (%)", "setting": "powdery mildew in wheat; Epoxiconazole 0.6 ppm alone", "value": 98, "unit": "%"},
      {"measurement": "Observed Control (%)", "setting": "powdery mildew in wheat; Epoxiconazole 2.5 ppm alone", "value": 100, "unit": "%"},
      {"measurement": "Observed Control (%)", "setting": "powdery mildew in wheat; Epoxiconazole 10 ppm alone", "value": 100, "unit": "%"},
      {"measurement": "ED90", "setting": "[1]; cucumber (Table 9)", "value": 5.5},
      {"measurement": "Observed Control (%)", "setting": "[1]; Epoxiconazole 2.5 ppm alone", "value": 60, "unit": "%"},
      {"measurement": "Observed Control (%)", "setting": "[1]; Epoxiconazole 5 ppm alone", "value": 96, "unit": "%"},
      {"measurement": "Observed Control (%)", "setting": "[1]; Epoxiconazole 10 ppm alone", "value": 96, "unit": "%"},
      {"measurement": "Observed Control (%)", "setting": "[1]; Epoxiconazole 20 ppm alone", "value": 100, "unit": "%"}
    ]},
    {"smiles": "CCCN(CCOc1c(Cl)cc(Cl)cc1Cl)C(=O)n1ccnc1", "note": "[Prochloraz, prochloraz]", "values": [
      {"measurement": "Observed Control (%)", "setting": "powdery mildew in barley; Prochloraz 1.25 ppm alone", "value": 43, "unit": "%"},
      {"measurement": "Observed Control (%)", "setting": "powdery mildew in barley; Prochloraz 5 ppm alone", "value": 67, "unit": "%"},
      {"measurement": "Observed Control (%)", "setting": "powdery mildew in barley; Prochloraz 10 ppm alone", "value": 74, "unit": "%"},
      {"measurement": "Observed Control (%)", "setting": "powdery mildew in wheat; Prochloraz 1.25 ppm alone", "value": 33, "unit": "%"},
      {"measurement": "Observed Control (%)", "setting": "powdery mildew in wheat; Prochloraz 5 ppm alone", "value": 42, "unit": "%"},
      {"measurement": "Observed Control (%)", "setting": "powdery mildew in wheat; Prochloraz 10 ppm alone", "value": 52, "unit": "%"}
    ]},
    {"smiles": "CCCC1COC(Cn2cncn2)(c2ccc(Cl)cc2Cl)O1", "note": "(stereo not shown) [Propiconazole, propiconazole]", "values": [
      {"measurement": "Observed Control (%)", "setting": "powdery mildew in barley; Propiconazole 0.5 ppm alone", "value": 75, "unit": "%"},
      {"measurement": "Observed Control (%)", "setting": "powdery mildew in barley; Propiconazole 1 ppm alone", "value": 88, "unit": "%"},
      {"measurement": "Observed Control (%)", "setting": "powdery mildew in barley; Propiconazole 2 ppm alone", "value": 94, "unit": "%"},
      {"measurement": "Observed Control (%)", "setting": "powdery mildew in wheat; Propiconazole 0.5 ppm alone", "value": 25, "unit": "%"},
      {"measurement": "Observed Control (%)", "setting": "powdery mildew in wheat; Propiconazole 1 ppm alone", "value": 50, "unit": "%"},
      {"measurement": "Observed Control (%)", "setting": "powdery mildew in wheat; Propiconazole 2 ppm alone", "value": 83, "unit": "%"}
    ]},
    {"smiles": "CC(C)(C)C(O)(CCc1ccc(Cl)cc1)Cn1cncn1", "note": "(stereo not shown) [Tebuconazole, tebuconazole]", "values": [
      {"measurement": "ED90", "setting": "powdery mildew in wheat; wheat (Table 5)", "value": 1.0},
      {"measurement": "Observed Control (%)", "setting": "powdery mildew in wheat; Tebuconazole 0.15 ppm alone", "value": 25, "unit": "%"},
      {"measurement": "Observed Control (%)", "setting": "powdery mildew in wheat; Tebuconazole 0.6 ppm alone", "value": 63, "unit": "%"},
      {"measurement": "Observed Control (%)", "setting": "powdery mildew in wheat; Tebuconazole 2.5 ppm alone", "value": 100, "unit": "%"},
      {"measurement": "Observed Control (%)", "setting": "powdery mildew in wheat; Tebuconazole 10 ppm alone", "value": 100, "unit": "%"},
      {"measurement": "ED90", "setting": "[1]; cucumber (Table 8)", "value": 14},
      {"measurement": "Observed Control (%)", "setting": "[1]; Tebuconazole 2.5 ppm alone", "value": 0, "unit": "%"},
      {"measurement": "Observed Control (%)", "setting": "[1]; Tebuconazole 5 ppm alone", "value": 80, "unit": "%"},
      {"measurement": "Observed Control (%)", "setting": "[1]; Tebuconazole 10 ppm alone", "value": 80, "unit": "%"},
      {"measurement": "Observed Control (%)", "setting": "[1]; Tebuconazole 20 ppm alone", "value": 92, "unit": "%"}
    ]},
    {"smiles": "CC(C)(C)C(O)C(Oc1ccc(Cl)cc1)n1cncn1", "note": "(stereo not shown) [Triadimenol, triadimenol]", "values": [
      {"measurement": "ED90", "setting": "powdery mildew in wheat; wheat (Table 7)", "value": 1.0},
      {"measurement": "Observed Control (%)", "setting": "powdery mildew in wheat; Triadimenol 0.15 ppm alone", "value": 25, "unit": "%"},
      {"measurement": "Observed Control (%)", "setting": "powdery mildew in wheat; Triadimenol 0.6 ppm alone", "value": 98, "unit": "%"},
      {"measurement": "Observed Control (%)", "setting": "powdery mildew in wheat; Triadimenol 2.5 ppm alone", "value": 100, "unit": "%"},
      {"measurement": "Observed Control (%)", "setting": "powdery mildew in wheat; Triadimenol 10 ppm alone", "value": 100, "unit": "%"},
      {"measurement": "ED90", "setting": "[1]; cucumber (Table 10)", "value": 9.4},
      {"measurement": "Observed Control (%)", "setting": "[1]; Triadimenol 2.5 ppm alone", "value": 60, "unit": "%"},
      {"measurement": "Observed Control (%)", "setting": "[1]; Triadimenol 5 ppm alone", "value": 88, "unit": "%"},
      {"measurement": "Observed Control (%)", "setting": "[1]; Triadimenol 10 ppm alone", "value": 96, "unit": "%"},
      {"measurement": "Observed Control (%)", "setting": "[1]; Triadimenol 20 ppm alone", "value": 96, "unit": "%"}
    ]},
    {"smiles": "CC(N)CC(=O)O", "note": "(stereo not drawn) [β-Aminobutyric acid, β-aminobutyric acid]", "values": [
      {"measurement": "Observed Control (%)", "setting": "powdery mildew in barley; BABA 16 ppm alone (Table 3)", "value": 0, "unit": "%"},
      {"measurement": "Observed Control (%)", "setting": "powdery mildew in barley; BABA 62 ppm alone (Table 3)", "value": 50, "unit": "%"},
      {"measurement": "Observed Control (%)", "setting": "powdery mildew in barley; BABA 125 ppm alone (Table 1)", "value": 14, "unit": "%"},
      {"measurement": "Observed Control (%)", "setting": "powdery mildew in barley; BABA 250 ppm alone (Table 1)", "value": 14, "unit": "%"},
      {"measurement": "Observed Control (%)", "setting": "powdery mildew in barley; BABA 250 ppm alone (Table 3)", "value": 38, "unit": "%"},
      {"measurement": "Observed Control (%)", "setting": "powdery mildew in barley; BABA 500 ppm alone (Table 1)", "value": 14, "unit": "%"},
      {"measurement": "Observed Control (%)", "setting": "powdery mildew in barley; BABA 1000 ppm alone (Table 1)", "value": 14, "unit": "%"},
      {"measurement": "Observed Control (%)", "setting": "powdery mildew in barley; BABA 1000 ppm alone (Table 3)", "value": 70, "unit": "%"},
      {"measurement": "ED90", "setting": "powdery mildew in wheat; wheat (Table 5)", "value": 684},
      {"measurement": "ED90", "setting": "powdery mildew in wheat; wheat (Table 6)", "value": 684},
      {"measurement": "ED90", "setting": "powdery mildew in wheat; wheat (Table 7)", "value": 684},
      {"measurement": "Observed Control (%)", "setting": "powdery mildew in wheat; BABA 16 ppm alone (Table 4)", "value": 0, "unit": "%"},
      {"measurement": "Observed Control (%)", "setting": "powdery mildew in wheat; BABA 62 ppm alone (Table 4)", "value": 8, "unit": "%"},
      {"measurement": "Observed Control (%)", "setting": "powdery mildew in wheat; BABA 125 ppm alone (Table 2)", "value": 8, "unit": "%"},
      {"measurement": "Observed Control (%)", "setting": "powdery mildew in wheat; BABA 125 ppm alone (Table 5)", "value": 13, "unit": "%"},
      {"measurement": "Observed Control (%)", "setting": "powdery mildew in wheat; BABA 125 ppm alone (Table 6)", "value": 13, "unit": "%"},
      {"measurement": "Observed Control (%)", "setting": "powdery mildew in wheat; BABA 125 ppm alone (Table 7)", "value": 13, "unit": "%"},
      {"measurement": "Observed Control (%)", "setting": "powdery mildew in wheat; BABA 250 ppm alone (Table 2)", "value": 8, "unit": "%"},
      {"measurement": "Observed Control (%)", "setting": "powdery mildew in wheat; BABA 250 ppm alone (Table 4)", "value": 17, "unit": "%"},
      {"measurement": "Observed Control (%)", "setting": "powdery mildew in wheat; BABA 250 ppm alone (Table 5)", "value": 25, "unit": "%"},
      {"measurement": "Observed Control (%)", "setting": "powdery mildew in wheat; BABA 250 ppm alone (Table 6)", "value": 25, "unit": "%"},
      {"measurement": "Observed Control (%)", "setting": "powdery mildew in wheat; BABA 250 ppm alone (Table 7)", "value": 25, "unit": "%"},
      {"measurement": "Observed Control (%)", "setting": "powdery mildew in wheat; BABA 500 ppm alone (Table 2)", "value": 8, "unit": "%"},
      {"measurement": "Observed Control (%)", "setting": "powdery mildew in wheat; BABA 500 ppm alone (Table 5)", "value": 63, "unit": "%"},
      {"measurement": "Observed Control (%)", "setting": "powdery mildew in wheat; BABA 500 ppm alone (Table 6)", "value": 63, "unit": "%"},
      {"measurement": "Observed Control (%)", "setting": "powdery mildew in wheat; BABA 500 ppm alone (Table 7)", "value": 63, "unit": "%"},
      {"measurement": "Observed Control (%)", "setting": "powdery mildew in wheat; BABA 1000 ppm alone (Table 2)", "value": 17, "unit": "%"},
      {"measurement": "Observed Control (%)", "setting": "powdery mildew in wheat; BABA 1000 ppm alone (Table 4)", "value": 33, "unit": "%"},
      {"measurement": "Observed Control (%)", "setting": "powdery mildew in wheat; BABA 1000 ppm alone (Table 5)", "value": 100, "unit": "%"},
      {"measurement": "Observed Control (%)", "setting": "powdery mildew in wheat; BABA 1000 ppm alone (Table 6)", "value": 100, "unit": "%"},
      {"measurement": "Observed Control (%)", "setting": "powdery mildew in wheat; BABA 1000 ppm alone (Table 7)", "value": 100, "unit": "%"}
    ]}
  ]
}
